From patent US12295396B2, “Antagonists of T2R54 and compositions and uses thereof” (Firmenich Incorporated, priority 2018, dated 2025)

What was measured:
hT2R54 = target: T1, hT2R54 (Homo sapiens, UniProt P59534); assay: Cell-based assay for measuring hT2R54 inhibition (FLIPR calcium, Fluo4AM, acetaminophen as bitter agonist); settings: Table 2; cells stably expressing hT2R54 and a promiscuous G protein; read-out: hT2R54 IC50
T1 construct: expressed in transfected cells; it overexpresses a promiscuous G protein
T1 sequence (P59534 1-338): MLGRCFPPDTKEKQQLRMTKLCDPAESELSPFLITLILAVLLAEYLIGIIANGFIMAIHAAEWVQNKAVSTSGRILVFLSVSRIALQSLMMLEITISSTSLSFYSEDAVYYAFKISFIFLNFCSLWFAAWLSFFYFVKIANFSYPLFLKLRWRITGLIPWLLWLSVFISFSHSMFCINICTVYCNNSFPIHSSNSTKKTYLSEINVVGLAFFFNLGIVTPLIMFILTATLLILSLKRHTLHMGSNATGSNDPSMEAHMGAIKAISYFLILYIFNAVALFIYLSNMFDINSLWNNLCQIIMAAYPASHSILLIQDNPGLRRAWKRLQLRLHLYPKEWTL
How it was run: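 The readout was FLIPR calcium (Fluo4AM, 10 s baseline, 3 min post-addition) in cells stably carrying hT2R54 plus a promiscuous G protein, with host cells lacking hT2R54 as counter-control. Acetaminophen concentration series were tested with and without set test-compound levels. Half-maximal block of the agonist response gave the EC50/IC50.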

T2R61 = target: T2, T2R61 (Homo sapiens, UniProt P59537); assay: Antagonist activity against a panel of bitter taste receptors (receptor based assay): T2R61; format: cell-based
T2 sequence (P59537 1-309): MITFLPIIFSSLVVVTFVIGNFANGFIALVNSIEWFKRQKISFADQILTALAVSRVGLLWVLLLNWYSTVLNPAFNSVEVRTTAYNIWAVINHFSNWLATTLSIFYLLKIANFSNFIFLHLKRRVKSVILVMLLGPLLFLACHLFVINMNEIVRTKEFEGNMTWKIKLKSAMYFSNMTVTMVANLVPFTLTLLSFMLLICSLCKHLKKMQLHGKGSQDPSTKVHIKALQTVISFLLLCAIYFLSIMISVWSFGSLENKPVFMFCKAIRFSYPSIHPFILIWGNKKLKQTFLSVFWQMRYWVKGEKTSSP
Description: (§1) Compounds described in this application show potent bitter antagonist effect on T2R54 in receptor based assays. […] Antagonist activity of 1-(6-methyl-2-phenylpyrimidin-4-yl)piperidine-4-carboxamide against a panel of bitter taste receptors is shown in Table 10, with the identity of each T2R as indicated in the left column, and the percentage activity remaining is indicated in the far right column.

T2R75 = target: T3, T2R75 (Homo sapiens, UniProt P59540); assay: Antagonist activity against a panel of bitter taste receptors (receptor based assay): T2R75; format: cell-based
T3 sequence (P59540 1-309): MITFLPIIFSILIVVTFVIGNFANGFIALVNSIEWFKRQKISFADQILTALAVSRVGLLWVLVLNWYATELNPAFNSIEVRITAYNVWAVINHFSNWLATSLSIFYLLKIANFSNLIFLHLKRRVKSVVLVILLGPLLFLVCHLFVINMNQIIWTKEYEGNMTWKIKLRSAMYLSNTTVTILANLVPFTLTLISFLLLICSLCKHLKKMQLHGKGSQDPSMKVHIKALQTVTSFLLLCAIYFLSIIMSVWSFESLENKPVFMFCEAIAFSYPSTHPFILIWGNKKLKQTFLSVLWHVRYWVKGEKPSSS
Description: as §1

T2R64 = target: T4, T2R64 (Homo sapiens, UniProt P59538); assay: Antagonist activity against a panel of bitter taste receptors (receptor based assay): T2R64; format: cell-based
T4 sequence (P59538 1-309): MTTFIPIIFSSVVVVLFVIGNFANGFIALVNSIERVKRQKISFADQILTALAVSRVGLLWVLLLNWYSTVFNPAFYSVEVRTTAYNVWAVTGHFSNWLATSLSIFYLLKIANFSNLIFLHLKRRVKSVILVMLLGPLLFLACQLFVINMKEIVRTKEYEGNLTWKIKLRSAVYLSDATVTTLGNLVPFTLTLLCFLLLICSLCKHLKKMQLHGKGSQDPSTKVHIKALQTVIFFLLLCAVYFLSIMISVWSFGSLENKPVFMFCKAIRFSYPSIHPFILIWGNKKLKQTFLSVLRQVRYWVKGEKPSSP
Description: as §1

[1] = system: bitterness of epigallocatechin gallate (EGCg); assay: Sensory experiments: taste tests comparing EGCg alone with EGCg and a bitter blocker; format: in vivo, human
Description: To determine the effectiveness of an individual antagonist in blocking the bitterness, taste tests were performed comparing epigallocatechin gallate (EGCg) alone, which is known to activate T2R54 with EGCg and a bitter blocker described herein, namely compound 22 (Table 2).

| IC50 (hT2R54) | bitter blocking effect on T2R61 (T2R61) | bitter blocking effect on T2R75 (T2R75) | bitter blocking effect on T2R64 (T2R64) | Compound | Total (times sample selected as more bitter) ([1]; 600 uM EGCG + 15 uM compound versus 600 uM EGCG alone, 56 in total, p-value 0.044) | reduction of EGCg bitterness ([1]; taste tests, EGCg alone versus EGCg with bitter blocker) |
| --- | --- | --- | --- | --- | --- | --- |
| 16 nM | significant bitter blocking effect | significant bitter blocking effect | significant bitter blocking effect | CC(=O)c1cc2c(cc1NC(=O)CN1CCN(C(=O)CC(C)C)CC1)OCO2 [Cmpd 1, N-(6-Acetylbenzo[d][1,3]dioxol-5-yl)-2-(4-(3-methylbutanoyl)piperazin-1-yl)acetamide] | – | – |
| 21 nM | – | – | – | CC(=O)c1cc2c(cc1NC(=O)CN1CCN(C(=O)C3CCCO3)CC1)OCO2 (stereo not shown) [compound 22] | 20 | has the ability to reduce EGCg bitterness |
